The values that follow come from PubChem BioAssay (NCI).

What all share (test): NCI anticancer screen, dose series, 48 h
Assay [1] deals with CCRF-CEM leukemia.
Assay [2] deals with UO-31 renal.
Assay [3] deals with 786-0 renal.
The subject of assay [4] is DU-145 prostate.
Assay [5] relates to OVCAR-8 ovarian.
The test system of assay [6] is PC-3 prostate.
Assay [7] deals with SNB-75 CNS.
Assay [8] has as its system NCI-H460 lung.
For assay [9], the system named is EKVX NSCLC.
The test system of assay [10] is T-47D breast.

“And” between values parts separate entries of the source, which are not always exact repeats. Identical values can stand only once.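 96-well plates; 48 h exposure; 5 concentrations. Endpoints by linear interpolation between flanking doses. Not reached: highest tested concentration assigned. At the GI50, growth is halved. The concentration for full growth arrest is given as TGI.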 Where only a bound is given, the exact number is not on record here.

Turning to `CCCC[N+](CCCC)=c1ccc2nc3c(C)cc(N(CC)CC)cc3sc-2c1`, the GI50 in assay [1] was 0.0923 µM; in assay [2], 0.134 µM; in assay [3], 0.302 µM; in assay [4], 0.307 µM; in assay [5], 0.0703 µM; in [6], 0.0583 µM. The GI50 in assay [7] was 0.229 µM. Further, the TGI in assay [1] was determined as 3.42 µM; in assay [2], 0.804 µM; in [3] it was 1.44 µM; in assay [4], 1.47 µM; in assay [5], 2.16 µM; in assay [6], 1.55 µM. The compound also returned a TGI in assay [7] of 1.1 µM.
In the case of `NNC(=S)N/N=C(/C(=O)Nc1cc(Cl)ccc1Cl)C1C(=O)Nc2ccccc2S1=O` (stereo unspecified), the TGI in assay [1], in assay [8], in [2], in assay [3], in [5] and in assay [7] was over 100 µM each time. Besides, in assay [9], the TGI is over 100 µM.
As to `Cn1c(O)c(C(/C=C/c2ccccc2)=NCCN=C(/C=C/c2ccccc2)c2c(O)n(C)c(=O)n(C)c2=O)c(=O)n(C)c1=O`, the GI50 is 12.4 µM in assay [1]; 10.1 µM in [8]; 16.1 µM in [10]; 23.3 µM in assay [2]; 21.3 µM in assay [3]; 13.3 µM in assay [4]. Moreover, the results for the GI50 in [5], in [7] and in assay [9] were 16.6 µM, 17.6 µM and 25.8 µM, respectively. The TGI in [1] was over 50 µM; in assay [8], 24.6 µM; in assay [10], over 50 µM; in [2], over 50 µM; in assay [3] it was over 50 µM; in assay [4] it was over 50 µM. Further, the TGI in assay [5], in [7] and in [9] was over 50 µM throughout.
Regarding `C[C@]12CCc3nonc3C1CC[C@@H]1C2CC[C@]2(C)NC(=O)CCC12` (stereo partly specified), the TGI in [1], in assay [8], in assay [2], in assay [3], in assay [5] and in assay [7] was over 100 µM throughout. The TGI in [9] is over 100 µM.
Take `O=C1OCCC1C(O)C1c2ccccc2-c2ccccc21` (stereo unspecified): the TGI in [1], in assay [8], in assay [2], in assay [3], in [5] and in assay [7] was over 100 µM each time. In assay [9], this compound registered a TGI of over 100 µM.
With `CN[C@@H](C)[C@@H](N)c1ccccc1`, the TGI in assay [1], in assay [8], in [2], in assay [3], in [5] and in assay [7] was over 100 µM each time. Besides, the TGI in [9] was over 100 µM.
`O=C1c2ccccc2C(=O)c2c(NCCNCCO)ccc(O)c21`: the TGI in assay [1] is 17.3 µM; in [8], 6.85 µM; in assay [2], 5.58 µM; in assay [3], 15.9 µM; in assay [5] it was 13.5 µM; in [7] it was 15.7 µM. The compound further had a TGI in [9] of 14 µM.
As for `O=c1cccccc1NCCCCCCNc1cccccc1=O`, the TGI in assay [1], in assay [8], in [2], in assay [3], in assay [5] and in assay [7] was over 100 µM each time. Further, in [9], the TGI is over 100 µM.
For `CC(=O)O[C@]1(C)OC(=O)[C@@H](C)N1[N+](=O)[O-]`, the TGI in [1], in assay [8], in assay [2], in [3], in assay [5] and in [7] was over 100 µM each time. Further, the TGI in assay [9] is over 100 µM.
On to `CC1(C)CCc2cc3c(cc2O1)OCC1c2cc4c(cc2OC31)OCO4` (stereo unspecified), for which the TGI in assay [1], in [8], in assay [2], in assay [3], in assay [5] and in assay [7] was over 100 µM each time. The same compound returned a TGI in assay [9] of over 100 µM.
Take `COc1ccc(N=Nc2c(-c3ccccc3)nn(C(=O)CC(=O)Nc3cccc(Cl)c3)c2-c2ccccc2)cc1`: the TGI in assay [1], in assay [8], in assay [2], in assay [3], in assay [5] and in assay [7] was over 100 µM each time. The TGI in [9] is over 100 µM.
As to `O=C(c1cc2ccccc2o1)N(Cc1ccccc1)c1ccccc1`, the TGI in assay [1] is 37.6 µM; in [8], 78.6 µM; in assay [2] it was 51.8 µM; in assay [3], 46.7 µM; in assay [5] it was 66.2 µM; in assay [7], over 100 µM. The same compound displayed a TGI in [9] of 78.2 µM.
`CCSC1(SCC)CC(Cc2ccc(OC)cc2)N(C=NC(C)(C)C)C1` (stereo unspecified): the TGI is 52.4 µM in assay [1]; over 100 µM in assay [8]; 87.5 µM in assay [2]; over 100 µM in [3]; over 100 µM in assay [5]; over 100 µM in [7]. Further, the TGI in [9] is over 100 µM.
`Cc1noc(C)c1-c1cc(O)cc(C(O)c2ccccc2)c1` (stereo unspecified): the GI50 is 14.8 µM in assay [1]; 25.1 µM in assay [8]; 7.7 µM in assay [10]; 1.08 µM in [2]; 27.1 µM in assay [3]; 69.5 µM in assay [4]. Moreover, the values for the GI50 in assay [5] and in assay [7] were 8.33 µM and 0.423 µM, respectively. The TGI in assay [1], in assay [8], in [10], in assay [2], in [3] and in [4] was over 100 µM in each case. Further, the TGI in assay [5] and in assay [7] was over 100 µM each time.
For the compound `CCOC(=O)C1=C(O)CSC1=Nc1ccccc1`, the TGI in assay [8], in [2], in assay [3], in [5] and in [7] was over 100 µM throughout.
Consider `CCOc1cc2c(cc1O)/C(=N\O)C[C@@H]1[C@@H]2CC[C@]2(C)[C@@H](O)CC[C@@H]12`, for which the TGI in [8] was 1.47 µM; in assay [2], 46.1 µM; in assay [3], over 100 µM; in assay [4], over 100 µM; in [5], over 100 µM; in [6], over 100 µM. For the same compound, the TGI in assay [7] is 0.0166 µM; in assay [9] it was over 100 µM. Further, the GI50 in [2] was 0.984 µM; in assay [3], 0.015 µM; in assay [4], 0.0232 µM; in assay [6], 0.767 µM and 0.491 µM; in assay [7], 0.00232 µM; in assay [9], 0.0582 µM.
`CC(C)(C)CC(C)(C)c1cc2c(O)c(c1)Cc1cc(C(C)(C)CC(C)(C)C)cc(c1O)Cc1cc(C(C)(C)CC(C)(C)C)cc(c1O)Cc1cc(C(C)(C)CC(C)(C)C)cc(c1O)Cc1cc(C(C)(C)CC(C)(C)C)cc(c1O)Cc1cc(C(C)(C)CC(C)(C)C)cc(c1O)C2`: the TGI in assay [1], in assay [8], in [2], in [3], in assay [5] and in assay [7] was over 100 µM in each case. Besides, the TGI in assay [9] was over 100 µM.
`CC(=O)O[C@H](C[C@H](C(C)C)N(C)C(=O)[C@@H](NC(=O)[C@H]1CCCCN1C)C(C)C)c1nc(C(=O)N[C@@H](Cc2ccccc2)C[C@H](C)C(=O)O)c(C(C)C)s1`: the GI50 is under 0.00333 µM in [1]; under 0.00333 µM in [8]; 0.0161 µM in assay [2]; under 0.00333 µM in assay [3]; under 0.00333 µM in assay [4]; under 0.00333 µM in assay [5]. Further, the GI50 in assay [6] was under 0.00333 µM; in assay [7] it was under 0.00333 µM; in [9], 0.00336 µM. Besides, the TGI in assay [1] is over 33.3 µM; in assay [8], 5.05 µM; in [2], over 33.3 µM; in [3] it was 9.51 µM; in assay [4] it was 0.0827 µM; in assay [5], over 33.3 µM. In addition, the TGI in assay [6] was over 33.3 µM; in assay [7], 29.1 µM; in [9], over 33.3 µM.
`COc1ccc2nc3cc(Cl)ccc3c(N3CCN(c4ccnc(N5CCOCC5)n4)CC3)c2c1`: the GI50 in assay [1] was 2.49 µM; in assay [8], over 100 µM; in assay [2] it was over 100 µM; in assay [3] it was 4.23 µM; in assay [4], 17.9 µM; in assay [5] it was 43.5 µM. Also, the GI50 in assay [6] was 98.1 µM; in assay [7] it was 10.6 µM. Moreover, the TGI was over 100 µM in assay [1]; over 100 µM in assay [8]; over 100 µM in assay [2]; 34.3 µM in assay [3]; over 100 µM in [4]; over 100 µM in assay [5]. The TGI in assay [6] was over 100 µM; in assay [7], 65.3 µM.
Regarding `O=C(CCCN1CCOCC1)Nc1ccc(Cn2nnc3c2C(=O)c2nnn(Cc4ccc(NC(=O)CCCN5CCOCC5)cc4)c2C3=O)cc1`, the GI50 in [1] is 1.81 µM; in [8], 2.07 µM; in [2] it was over 100 µM; in assay [3], over 100 µM; in assay [4], 7.3 µM; in [5], 3.78 µM. For the same compound, the results for the GI50 in assay [6] and in assay [7] were 3.67 µM and 1.83 µM, respectively. For the same compound, the TGI in assay [1] was 6.32 µM; in assay [8] it was over 100 µM; in assay [2], over 100 µM; in assay [3] it was over 100 µM; in [4], over 100 µM; in [5] it was over 100 µM. The values for the TGI in assay [6] and in [7] were over 100 µM and 3.24 µM, respectively.
`Cc1cc(=O)[nH]o1`: the TGI in assay [8], in assay [2], in assay [3], in assay [5], in assay [6] and in [7] was over 100 µM throughout. This compound registered a TGI in assay [9] of over 100 µM.
With `O=C1N(c2ccccc2)C(=O)C2(SC=NN2Cc2ccccc2)N1c1ccccc1` (stereo unspecified), the TGI in assay [1], in assay [8], in [2], in [3], in assay [5] and in [7] was over 100 µM throughout. The compound also displayed a TGI in [9] of over 100 µM.
As for `COc1ccc(C(=O)C(C(=O)C(=O)Nc2ccc(Cl)c(Cl)c2)c2ccc(OC)cc2)cc1` (stereo unspecified), the TGI in assay [8], in assay [2], in assay [3], in [5], in assay [7] and in [9] was over 100 µM throughout.
For `COc1cnc2c(c1)C(=O)c1c-2n(CCCN2CCC(O)CC2)c(=O)c2cc(F)ccc12`, the GI50 in assay [1] is 0.0797 µM; in [8], 0.0444 µM; in assay [10], 0.0996 µM; in [2] it was 0.135 µM; in [3], 0.211 µM; in [4] it was 0.174 µM. In addition, the GI50 was 0.173 µM in assay [5], 0.252 µM in [7] and 0.271 µM in assay [9]. Also, the TGI in assay [1] was determined as 1.95 µM; in [8], 0.221 µM; in [10], 0.86 µM; in assay [2], 0.619 µM; in assay [3], 0.925 µM; in assay [4], 1.41 µM. Besides, the TGI worked out at 1.16 µM in assay [5], 2.59 µM in assay [7] and 1.62 µM in assay [9].
For `CC/C(=C(/CC)c1ccc([O-])cc1)c1ccc([O-])cc1.CC/C(=C(\CC)c1ccc([O-])cc1)c1ccc([O-])cc1.O=C([CH-]C(=O)c1ccccc1)c1ccccc1.O=C([CH-]C(=O)c1ccccc1)c1ccccc1.O=C([CH-]C(=O)c1ccccc1)c1ccccc1.O=C([CH-]C(=O)c1ccccc1)c1ccccc1.[Ti+4].[Ti+4]`, the GI50 in assay [1] was 21 µM; in assay [8] it was 25.2 µM; in assay [2], 35 µM; in assay [3] it was 16.9 µM; in [5], 20.7 µM; in [9], 45.5 µM. The TGI in [1] is 93.8 µM; in assay [8], over 100 µM; in [2], 72.2 µM; in [3], 32.4 µM; in assay [5], 50.1 µM; in assay [9] it was over 100 µM.
